Measurements reported in ChEMBL document CHEMBL1201862, “PubChem BioAssay data set” (2004).
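The compound was tested at five concentrations on cells cultured in 96-well plates, with a 48-hour exposure period. GI50 marks 50% less growth.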 Activity calls are given as the source filed them. Cut-off read from the data, not from the text of the source: active = GI50 up to about 1.1 µM and inactive = higher. Where a SMILES comes first, the peptide text is derived from it. [ ]: non-standard residue; d: D form. The star is where a group is joined. ξ: configuration not given here. ξPhe(4-NO2) = NC(Cc1ccc([N+](=O)[O-])cc1)C(=O)O; Boc = CC(C)(C)OC(=O)*; OBn = c1ccc(CO*)cc1

What was measured:
Test in all cases: NCI-60 cell line screen, 48 h
A498 = tested on: A498
Hs-578T = tested on: Hs-578T
NCI-H23 = tested on: NCI-H23
COLO 205 = tested on: COLO 205
T47D = tested on: T47D
HCC 2998 = tested on: HCC 2998
NCI-H226 = tested on: NCI-H226
SR = tested on: SR
786-0 = tested on: 786-0
NCI/ADR-RES = tested on: NCI/ADR-RES
MCF7 = tested on: MCF7
HT-29 = tested on: HT-29
OVCAR-8 = tested on: OVCAR-8
RXF 393 = tested on: RXF 393
HCT-15 = tested on: HCT-15
SNB-19 = tested on: SNB-19
ACHN = tested on: ACHN
CAKI-1 = tested on: CAKI-1
SF-268 = tested on: SF-268
MDA-N = tested on: MDA-N
NCI-H522 = tested on: NCI-H522
UACC-257 = tested on: UACC-257
M14 = tested on: M14
TK-10 = tested on: TK-10
LOX IMVI = tested on: LOX IMVI
IGROV-1 = tested on: IGROV-1
SF-295 = tested on: SF-295
MOLT-4 = tested on: MOLT-4
BT-549 = tested on: BT-549
DU-145 = tested on: DU-145
EKVX = tested on: EKVX
OVCAR-5 = tested on: OVCAR-5
HOP-62 = tested on: HOP-62
SN12C = tested on: SN12C
KM12 = tested on: KM12
K562 = tested on: K562
UO-31 = tested on: UO-31
HOP-92 = tested on: HOP-92
CCRF-CEM = tested on: CCRF-CEM
U-251 = tested on: U-251
OVCAR-4 = tested on: OVCAR-4
SF-539 = tested on: SF-539
SK-MEL-28 = tested on: SK-MEL-28
PC-3 = tested on: PC-3
MDA-MB-435 = tested on: MDA-MB-435
MDA-MB-231 = tested on: MDA-MB-231
Malme-3M = tested on: Malme-3M
HL-60 = tested on: HL-60
HCT-116 = tested on: HCT-116
RPMI-8226 = tested on: RPMI-8226
SK-MEL-5 = tested on: SK-MEL-5
OVCAR-3 = tested on: OVCAR-3
A549 = tested on: A549
UACC-62 = tested on: UACC-62
SNB-75 = tested on: SNB-75
NCI-H460 = tested on: NCI-H460
SK-OV-3 = tested on: SK-OV-3
SW-620 = tested on: SW-620

For `CC(=O)NNC1=NN(C(C)=O)C2(S1)C(=O)Nc1ccc(C)cc12` (configuration not stated), the GI50 (A498) was 38.1 µM (inactive), the GI50 (Hs-578T) was 26.4 µM (inactive) and the GI50 (NCI-H23) was > 100 µM (inactive). For the same compound, the GI50 (COLO 205) was > 100 µM (inactive), the GI50 (T47D) was 23 µM (inactive) and the GI50 (HCC 2998) was 47.1 µM (inactive). The GI50 (NCI-H226) was > 100 µM (inactive), the GI50 (SR) was 55.5 µM (inactive) and the GI50 (786-0) was 84.1 µM (inactive). The GI50 (NCI/ADR-RES) was > 100 µM (inactive), the GI50 (MCF7) was 58.7 µM (inactive) and the GI50 (HT-29) was > 100 µM (inactive). The GI50 (OVCAR-8) was 83.6 µM (inactive), the GI50 (RXF 393) was 44.9 µM (inactive) and the GI50 (HCT-15) was 50 µM. For the same compound, the GI50 (SNB-19) was 52.5 µM (inactive), the GI50 (ACHN) was 34.2 µM (inactive) and the GI50 (CAKI-1) was 73.6 µM (inactive). The GI50 (SF-268) was > 100 µM (inactive), the GI50 (MDA-N) was > 100 µM (inactive) and the GI50 (NCI-H522) was 42 µM (inactive). For the same compound, the GI50 (UACC-257) was > 100 µM (inactive), the GI50 (M14) was > 100 µM (inactive) and the GI50 (TK-10) was 38.5 µM (inactive). The GI50 (LOX IMVI) was > 100 µM (inactive), the GI50 (IGROV-1) was 66.5 µM (inactive) and the GI50 (SF-295) was 97.9 µM (inactive). The GI50 (MOLT-4) was > 100 µM (inactive), the GI50 (BT-549) was 47.8 µM (inactive) and the GI50 (DU-145) was > 100 µM (inactive). The GI50 (EKVX) was 78.9 µM (inactive), the GI50 (OVCAR-5) was > 100 µM (inactive) and the GI50 (HOP-62) was 35.3 µM (inactive). For the same compound, the GI50 (SN12C) was > 100 µM (inactive), the GI50 (KM12) was 57.7 µM (inactive) and the GI50 (K562) was 48.3 µM (inactive). The GI50 (UO-31) was 32.4 µM (inactive), the GI50 (HOP-92) was 29 µM (inactive) and the GI50 (CCRF-CEM) was 48.4 µM (inactive). For the same compound, the GI50 (U-251) was 41.7 µM (inactive), the GI50 (OVCAR-4) was 88.1 µM (inactive) and the GI50 (SF-539) was > 100 µM (inactive). The GI50 (SK-MEL-28) was 78.3 µM (inactive), the GI50 (PC-3) was 67.5 µM (inactive) and the GI50 (MDA-MB-435) was > 100 µM (inactive). The GI50 (MDA-MB-231) was 80.2 µM (inactive), the GI50 (Malme-3M) was 49.7 µM (inactive) and the GI50 (HL-60) was 38.3 µM (inactive). The GI50 (HCT-116) was > 100 µM (inactive), the GI50 (RPMI-8226) was 34.8 µM (inactive) and the GI50 (SK-MEL-5) was 68.5 µM (inactive). For the same compound, the GI50 (OVCAR-3) was > 100 µM (inactive), the GI50 (A549) was 94 µM (inactive) and the GI50 (UACC-62) was 39.4 µM (inactive). For the same compound, the GI50 (SNB-75) was 45.7 µM (inactive) and the GI50 (NCI-H460) was 67 µM (inactive).
With `CC(C)(C)OC(=O)NC(Cc1ccc([N+](=O)[O-])cc1)C(=O)NCC(=O)OCc1ccccc1` (configuration not stated) (Boc-[ξPhe(4-NO2)]-Gly-OBn) the GI50 (A498) was 38.6 µM (inactive), the GI50 (Hs-578T) was 22.3 µM (inactive) and the GI50 (NCI-H23) was 20.2 µM (inactive). The GI50 (COLO 205) was 17.1 µM (inactive), the GI50 (T47D) was 44.1 µM (inactive) and the GI50 (HCC 2998) was 19.6 µM (inactive). For the same compound, the GI50 (NCI-H226) was 26.7 µM (inactive), the GI50 (SR) was 31.6 µM (inactive) and the GI50 (786-0) was 11.4 µM (inactive). For the same compound, the GI50 (NCI/ADR-RES) was 42 µM (inactive), the GI50 (MCF7) was 28.2 µM (inactive) and the GI50 (HT-29) was 25.5 µM (inactive). The GI50 (OVCAR-8) was 22.2 µM (inactive), the GI50 (RXF 393) was 22.2 µM (inactive) and the GI50 (SK-OV-3) was 24.6 µM (inactive). The GI50 (HCT-15) was 19.4 µM, the GI50 (SNB-19) was 55.3 µM (inactive) and the GI50 (ACHN) was 23 µM (inactive). For the same compound, the GI50 (CAKI-1) was 13.1 µM (inactive), the GI50 (SF-268) was 19.5 µM (inactive) and the GI50 (MDA-N) was 19.1 µM (inactive). The GI50 (NCI-H522) was 20.2 µM (inactive), the GI50 (M14) was 19.5 µM (inactive) and the GI50 (TK-10) was > 100 µM (inactive). The GI50 (LOX IMVI) was 14.1 µM (inactive), the GI50 (IGROV-1) was > 100 µM (inactive) and the GI50 (SF-295) was 20.5 µM (inactive). The GI50 (MOLT-4) was 15 µM (inactive), the GI50 (BT-549) was 25.7 µM (inactive) and the GI50 (DU-145) was 30.1 µM (inactive). The GI50 (EKVX) was > 100 µM (inactive), the GI50 (OVCAR-5) was > 100 µM (inactive) and the GI50 (HOP-62) was 17.3 µM (inactive). The GI50 (SN12C) was 20.7 µM (inactive), the GI50 (KM12) was 31.4 µM (inactive) and the GI50 (K562) was 15 µM (inactive). For the same compound, the GI50 (UO-31) was 23.9 µM (inactive), the GI50 (HOP-92) was 34 µM (inactive) and the GI50 (CCRF-CEM) was 13.9 µM (inactive). The GI50 (U-251) was 20.7 µM (inactive), the GI50 (OVCAR-4) was 25.9 µM (inactive) and the GI50 (SK-MEL-28) was 24 µM (inactive). The GI50 (PC-3) was 17.2 µM (inactive), the GI50 (MDA-MB-435) was 16.9 µM (inactive) and the GI50 (SW-620) was 29.6 µM (inactive). The GI50 (MDA-MB-231) was 31.3 µM (inactive), the GI50 (Malme-3M) was 23.8 µM (inactive) and the GI50 (HL-60) was 36.1 µM (inactive). The GI50 (HCT-116) was 26.5 µM (inactive), the GI50 (RPMI-8226) was 21 µM (inactive) and the GI50 (SK-MEL-5) was 19.4 µM (inactive). The GI50 (OVCAR-3) was 19 µM (inactive), the GI50 (A549) was 47.4 µM (inactive) and the GI50 (UACC-62) was 17 µM (inactive). The GI50 (SNB-75) was 18.4 µM (inactive) and the GI50 (NCI-H460) was 21.9 µM (inactive).
